Data on 4 molecules can be found in US4835172A, “Novel benzamides, intermediates and process for the preparation and therapeutic use thereof” (Societe D'Etudes Scientifiques et Industrielles de …, priority 1985, dated 1989).

The nature of series [1]: solubility in water. The format is physicochemical.
The test system of series [2] is prolactin. Put plainly: prolactin content in serum after subcutaneous administration in the male rat. The class given is in vivo. As to the method: The blood samples had been taken 10 and 30 minutes after administration of the compound, whereas the same dose of a reference antidopaminergic (Sulpiride) studied under the same conditions, multiplies the amount of basic prolactinaemia by a factor of about 10.

Series [3] deals with D1 receptors. The series is described as follows: displacement of 3H-piflutixol, ligand of D1 receptors, in vitro on rat striatum preparations. The format is binding. The text has this:
(§1) These tests which consisted of studying the displacement of specific ligands of dopamine receptors by compounds of the invention. The compound in Example I was found, for instance, to have an inhibiting concentration (50), I.C.
For orientation: In a radioligand displacement assay an active substance lowers the binding of a labelled ligand.

The target of series [4] is T1, D2 receptors (Rattus norvegicus, UniProt P61169).
T1 construct: in vitro tests on rat striatum preparations; from tissue; host or cells: rat striatum preparations
T1 sequence (P61169 whole entry): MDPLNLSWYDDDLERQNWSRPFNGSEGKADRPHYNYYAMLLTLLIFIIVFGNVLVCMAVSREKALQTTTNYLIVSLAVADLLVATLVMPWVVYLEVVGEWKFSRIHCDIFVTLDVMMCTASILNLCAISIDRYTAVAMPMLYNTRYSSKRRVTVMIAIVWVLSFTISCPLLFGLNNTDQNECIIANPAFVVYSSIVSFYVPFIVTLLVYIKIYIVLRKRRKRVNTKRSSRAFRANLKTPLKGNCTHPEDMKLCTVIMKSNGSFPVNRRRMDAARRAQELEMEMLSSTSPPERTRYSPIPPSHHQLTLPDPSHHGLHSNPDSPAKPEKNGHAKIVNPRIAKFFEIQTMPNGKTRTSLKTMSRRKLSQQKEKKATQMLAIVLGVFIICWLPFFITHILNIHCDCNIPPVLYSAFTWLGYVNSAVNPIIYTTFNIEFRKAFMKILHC
Put plainly: displacement of 3H-spiperone, ligand of D2 receptors, in vitro on rat striatum preparations. The class given is binding. The note with it: read-out: inhibiting concentration (50), I.C. 50, relative to 3H-spiperone.
Source text: as §1

The test system of series [5] is reserpine-induced motor depression and ptosis. The series is described as follows: reserpine model of behavioural depression. The format is in vivo, mice or rats. As to the method: In view of this activating property of the compounds of the invention, animal models of behavioural depression were used to investigate a possible antidepressive effect. For example, mice pre-treated with reserpine (5 mg/kg) intraperitoneally 18 hours before the test, or rats receiving reserpine in the nucleus accumbens 1 μg/24 h) were tested.

Series [6] is described as follows: acute toxicity in mice. The note with it: mouse, in vivo. As to the method:
In the course of this pharmacological research a toxicological study of the most preferred compound was carried out.

Converted amounts (≈) assume the structure as drawn. Read-outs that look alike come from different tables or passages of the source.

With `COc1cc(NC2=NCCO2)c(Cl)cc1C(=O)NCC1CCCN1CC1CC1` (stereo not shown) [XL, N-(1-CYCLOPROPYLMETHYL 2-PYRROLIDINYLMETHYL) 2-METHOXY 4-[(4,5-DIHYDRO 2-OXAZOLYL) AMINO] 5-CHLORO BENZAMIDE], the solubility in series [1] (monohydrochloride prepared for immediate use, read-out: soluble in water, monohydrochloride) was around 320 mg/mL (≈ 786 mM).

Take `C=CCOc1cc(NC2=NCCN2)c(Cl)cc1C(=O)NCCN(CC)CC` [XXXIII, N-(DIETHYLAMINO ETHYL) 2-ALLYLOXY 4-[(1-H 4,5 DIHYDRO 2-IMIDAZOLYL) AMINO] 5-CHLORO BENZAMIDE]: the solubility in series [1] (hydrochloride prepared for immediate use, read-out: soluble in water, hydrochloride) came out at 200 mg/mL (≈ 508 mM); in series [1] (the product (base), read-out: insoluble in water), 10 mg/mL (≈ 25.4 mM).

As to `CCN1CCCC1CNC(=O)c1cc(S(N)(=O)=O)ccc1OC` (stereo not shown) [Sulpiride, reference compound], the “factor by which the amount of basic prolactinaemia is multiplied” value in series [2] (same dose (1 mg/kg) and same conditions) was “about 10”.

Turning to `CCN(CC)CCNC(=O)c1cc(Cl)c(NC2=NCCN2)cc1OC` [Example I, N-[(DIETHYL AMINO) ETHYL] 2-METHOXY 4-[(1-H 4,5-DIHYDRO 2-IMIDAZOLYL) AMINO] 5-CHLORO BENZAMIDE], the “displacement of 3H-piflutixol” value in series [3] is “no displacement”. The “increase in prolactin content in serum” value in series [2] (1 mg/kg s.c., eight rats, 10 and 30 minutes after administration) was “no increase in prolactin content”. Besides, the IC50 in series [4] was above 100 µM. Moreover, the “activity compared with imipramine against reserpine” value in series [5] (0.1 mg/kg s.c. versus imipramine 30 mg/kg i.p.) was “as active at that dose as 30 mg/kg of imipramine”. Moreover, the “effect on reserpine-induced motor depression and ptosis” value in series [5] (0.1 mg/kg s.c., reserpine 5 mg/kg i.p. (mice) or in nucleus accumbens 1 μg/24 h (rats)) is “counteracts motor depression and ptosis”. Further, the LD50 in series [6] (ip, read-out: LD 50 i.p.) lay within 37.7 to 40.8 mg/kg; in series [6] (iv, read-out: LD 50 i.v.), 12.8 to 14.4 mg/kg; in series [6] (po, per os, read-out: LD 50 per os), 165 to 180 mg/kg; in series [6] (sc, read-out: LD 50 s.c.), 52 to 54 mg/kg.
